ChEMBL document CHEMBL4507261, “Data for DCP probe A-192621” (2021)

Columns and labels:
[1] = target: Substance-K receptor (Homo sapiens) (UniProt P21452); experiment: NK2 (h) Eurofins-Cerep binding assay; design: ligand concentration 0.1 nM; details: filed as agonist, Compound concentration 10.0 uM
[2] = target: Tyrosine-protein kinase FRK (Homo sapiens) (UniProt P42685); details: Compound concentration 1000.0 nM
[3] = target: Mitogen-activated protein kinase 9 (Homo sapiens) (UniProt P45984); details: Compound concentration 1000.0 nM
Sequence of Mitogen-activated protein kinase 9 (Homo sapiens) (P45984 whole entry, looked up): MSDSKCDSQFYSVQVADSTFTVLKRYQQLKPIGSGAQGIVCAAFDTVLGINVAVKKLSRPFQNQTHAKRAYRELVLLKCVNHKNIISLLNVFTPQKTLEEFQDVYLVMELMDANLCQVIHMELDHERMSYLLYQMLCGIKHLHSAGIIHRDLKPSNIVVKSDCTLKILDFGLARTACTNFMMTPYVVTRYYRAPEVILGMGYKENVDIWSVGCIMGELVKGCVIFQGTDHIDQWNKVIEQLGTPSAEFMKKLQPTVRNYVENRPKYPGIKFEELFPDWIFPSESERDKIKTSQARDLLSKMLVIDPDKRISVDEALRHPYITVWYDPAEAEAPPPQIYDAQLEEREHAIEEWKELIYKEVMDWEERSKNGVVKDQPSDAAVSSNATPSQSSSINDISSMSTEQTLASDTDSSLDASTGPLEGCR

[4] = target: Homeodomain-interacting protein kinase 1 (Homo sapiens) (UniProt Q86Z02); details: Compound concentration 1000.0 nM
[5] = target: Calcium-dependent protein kinase 1 (Plasmodium falciparum) (UniProt P62344); details: Compound concentration 1000.0 nM
[6] = target: Cyclin-dependent kinase 17 (Homo sapiens) (UniProt Q00537); details: Compound concentration 1000.0 nM
[7] = target: Non-receptor tyrosine-protein kinase TYK2 (Homo sapiens) (UniProt P29597); details: Compound concentration 1000.0 nM
[8] = target: STE20/SPS1-related proline-alanine-rich protein kinase (Homo sapiens) (UniProt Q9UEW8); details: Compound concentration 1000.0 nM
[9] = target: Dual specificity mitogen-activated protein kinase kinase 5 (Homo sapiens) (UniProt Q13163); details: Compound concentration 1000.0 nM
[10] = target: T1, 5-hydroxytryptamine receptor 2C (Homo sapiens) (UniProt P28335); experiment: 5-HT2C (h) Eurofins-Cerep binding assay; design: ligand concentration 1 nM; details: filed as antagonist, Compound concentration 10.0 uM
T1 sequence (whole entry): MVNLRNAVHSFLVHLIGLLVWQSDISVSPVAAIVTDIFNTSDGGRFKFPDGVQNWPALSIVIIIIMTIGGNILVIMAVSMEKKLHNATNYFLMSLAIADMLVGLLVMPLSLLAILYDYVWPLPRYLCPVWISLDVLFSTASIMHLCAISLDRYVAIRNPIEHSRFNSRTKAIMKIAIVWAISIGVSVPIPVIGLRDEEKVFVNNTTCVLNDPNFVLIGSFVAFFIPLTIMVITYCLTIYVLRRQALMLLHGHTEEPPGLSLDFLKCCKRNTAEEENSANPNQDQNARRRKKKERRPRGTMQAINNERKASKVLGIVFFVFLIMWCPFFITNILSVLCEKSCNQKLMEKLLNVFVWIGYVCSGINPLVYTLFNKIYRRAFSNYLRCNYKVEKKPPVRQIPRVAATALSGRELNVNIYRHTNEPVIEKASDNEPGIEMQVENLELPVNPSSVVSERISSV

[11] = target: Ephrin type-B receptor 2 (Homo sapiens) (UniProt P29323); details: Compound concentration 1000.0 nM
Sequence of Ephrin type-B receptor 2 (Homo sapiens) (P29323 whole entry): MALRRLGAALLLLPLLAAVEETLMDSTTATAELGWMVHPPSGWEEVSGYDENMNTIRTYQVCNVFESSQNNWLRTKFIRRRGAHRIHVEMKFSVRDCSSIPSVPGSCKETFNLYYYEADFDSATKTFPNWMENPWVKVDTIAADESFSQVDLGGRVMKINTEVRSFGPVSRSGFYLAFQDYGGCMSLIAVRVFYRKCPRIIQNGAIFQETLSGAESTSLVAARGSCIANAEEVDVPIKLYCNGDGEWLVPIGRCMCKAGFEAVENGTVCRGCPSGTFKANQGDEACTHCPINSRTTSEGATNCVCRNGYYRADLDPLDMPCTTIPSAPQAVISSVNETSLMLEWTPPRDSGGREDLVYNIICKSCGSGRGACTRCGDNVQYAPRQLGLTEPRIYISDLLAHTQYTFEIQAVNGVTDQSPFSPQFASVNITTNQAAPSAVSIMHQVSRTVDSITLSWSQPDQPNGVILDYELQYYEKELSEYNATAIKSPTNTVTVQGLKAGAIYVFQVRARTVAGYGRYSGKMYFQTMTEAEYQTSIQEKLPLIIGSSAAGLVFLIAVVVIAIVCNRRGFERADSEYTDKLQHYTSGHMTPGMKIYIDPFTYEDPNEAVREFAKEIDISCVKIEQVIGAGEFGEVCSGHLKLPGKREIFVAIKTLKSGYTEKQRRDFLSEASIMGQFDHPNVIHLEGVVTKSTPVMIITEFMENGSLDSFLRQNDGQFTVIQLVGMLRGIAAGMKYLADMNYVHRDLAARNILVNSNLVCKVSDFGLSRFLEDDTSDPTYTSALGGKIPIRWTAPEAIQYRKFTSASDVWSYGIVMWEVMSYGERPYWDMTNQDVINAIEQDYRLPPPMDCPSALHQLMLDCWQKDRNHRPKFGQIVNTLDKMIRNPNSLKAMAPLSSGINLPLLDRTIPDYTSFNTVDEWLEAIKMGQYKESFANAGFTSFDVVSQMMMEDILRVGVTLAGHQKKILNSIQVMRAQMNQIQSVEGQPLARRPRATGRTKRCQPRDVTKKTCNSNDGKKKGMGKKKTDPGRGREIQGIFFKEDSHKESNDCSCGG

[12] = target: Macrophage colony-stimulating factor 1 receptor (Homo sapiens) (UniProt P07333); details: Compound concentration 1000.0 nM
[13] = target: Tyrosine-protein kinase receptor Tie-1 (Homo sapiens) (UniProt P35590); details: Compound concentration 1000.0 nM
[14] = target: Sigma non-opioid intracellular receptor 1 (Homo sapiens) (UniProt Q99720); experiment: sigma (non-selective) (h) Eurofins-Cerep binding assay; design: ligand concentration 10 nM; details: filed as agonist, Compound concentration 10.0 uM
[15] = target: voltage-gated L-type Ca2+ channel (diltiazem site, benzothiazepines) (Rattus norvegicus, UniProt P22002+P27732+Q02485); experiment: Ca2+ channel (L, diltiazem site) (benzothiazepines) Eurofins-Cerep binding assay; design: incubation time 120 min, incubation temperature RT, ligand concentration 15 nM; details: rat cerebral cortex (source of protein), probe [3H]diltiazem (15 nM), compound concentration 10 uM, read-out: % Inhibition of Control Specific Binding (Mean n=2)
[16] = target: Mitogen-activated protein kinase kinase kinase kinase 5 (Homo sapiens) (UniProt Q9Y4K4); details: Compound concentration 1000.0 nM
[17] = system: Phosphatidylinositol 4,5-bisphosphate 3-kinase catalytic subunit alpha isoform (Homo sapiens), P42336 [E542K]; details: Compound concentration 1000.0 nM
[18] = target: Epidermal growth factor receptor (Homo sapiens) (UniProt P00533); details: Compound concentration 1000.0 nM
[19] = target: cAMP-dependent protein kinase catalytic subunit PRKX (Homo sapiens) (UniProt P51817); details: Compound concentration 1000.0 nM
[20] = target: Mitogen-activated protein kinase kinase kinase 9 (Homo sapiens) (UniProt P80192); details: Compound concentration 1000.0 nM
[21] = target: Prostaglandin E2 receptor EP2 subtype (Homo sapiens) (UniProt P43116); experiment: EP2 (h) Eurofins-Cerep binding assay; design: ligand concentration 3 nM; details: filed as agonist, Compound concentration 10.0 uM
[22] = target: Calcium/calmodulin-dependent protein kinase type II subunit beta (Homo sapiens) (UniProt Q13554); details: Compound concentration 1000.0 nM
[23] = target: Serine/threonine-protein kinase RIO1 (Homo sapiens) (UniProt Q9BRS2); details: Compound concentration 1000.0 nM
[24] = target: Tyrosine-protein kinase receptor TYRO3 (Homo sapiens) (UniProt Q06418); details: Compound concentration 1000.0 nM
[25] = target: NT-3 growth factor receptor (Homo sapiens) (UniProt Q16288); details: Compound concentration 1000.0 nM
[26] = target: Phosphatidylinositol 4,5-bisphosphate 3-kinase catalytic subunit gamma isoform (Homo sapiens) (UniProt P48736); details: Compound concentration 1000.0 nM
[27] = target: Cyclin-dependent kinase-like 2 (Homo sapiens) (UniProt Q92772); details: Compound concentration 1000.0 nM
[28] = target: Discoidin domain-containing receptor 2 (Homo sapiens) (UniProt Q16832); details: Compound concentration 1000.0 nM
Sequence of Discoidin domain-containing receptor 2 (Homo sapiens) (Q16832 whole entry, the tested form may be a part): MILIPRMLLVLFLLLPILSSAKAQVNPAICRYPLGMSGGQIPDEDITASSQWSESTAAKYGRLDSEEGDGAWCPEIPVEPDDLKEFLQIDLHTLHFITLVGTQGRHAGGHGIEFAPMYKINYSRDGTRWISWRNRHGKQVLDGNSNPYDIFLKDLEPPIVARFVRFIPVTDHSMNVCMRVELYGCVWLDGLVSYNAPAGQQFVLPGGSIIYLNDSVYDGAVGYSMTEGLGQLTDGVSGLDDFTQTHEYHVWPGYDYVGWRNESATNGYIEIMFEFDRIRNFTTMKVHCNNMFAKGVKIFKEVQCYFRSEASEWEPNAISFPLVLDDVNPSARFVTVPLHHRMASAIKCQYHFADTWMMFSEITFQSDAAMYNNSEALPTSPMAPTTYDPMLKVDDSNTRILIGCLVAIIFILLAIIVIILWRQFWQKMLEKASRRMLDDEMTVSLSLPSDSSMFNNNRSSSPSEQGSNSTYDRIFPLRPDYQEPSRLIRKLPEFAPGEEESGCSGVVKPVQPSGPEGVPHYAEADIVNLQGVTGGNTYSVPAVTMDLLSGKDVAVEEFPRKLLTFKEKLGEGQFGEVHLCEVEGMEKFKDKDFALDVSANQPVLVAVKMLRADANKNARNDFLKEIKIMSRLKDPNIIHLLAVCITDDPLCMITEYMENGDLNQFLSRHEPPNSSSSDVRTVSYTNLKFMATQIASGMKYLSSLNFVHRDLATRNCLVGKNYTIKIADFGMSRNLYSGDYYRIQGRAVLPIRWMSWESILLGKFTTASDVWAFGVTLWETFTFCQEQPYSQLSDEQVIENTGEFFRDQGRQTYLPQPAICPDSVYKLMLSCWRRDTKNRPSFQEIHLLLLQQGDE

[29] = target: Mitogen-activated protein kinase kinase kinase 12 (Homo sapiens) (UniProt Q12852); details: Compound concentration 1000.0 nM
[30] = target: 5-hydroxytryptamine receptor 7 (Homo sapiens) (UniProt P34969); experiment: 5-HT7 (h) Eurofins-Cerep binding assay; design: ligand concentration 4 nM; details: filed as agonist, Compound concentration 10.0 uM
[31] = target: Serine/threonine-protein kinase Sgk3 (Homo sapiens) (UniProt Q96BR1); details: Compound concentration 1000.0 nM
[32] = target: GABA-A receptor; anion channel (Rattus norvegicus) (UniProt O09028+P15431+P18506+P18508+P19969+P20236+P23574+P23576+P28471+P28473+P30191+P62813+P63079+P63138+Q91ZM7+Q9ES14); experiment: Cl- channel (GABA-gated) Eurofins-Cerep binding assay; format: protein-complex assay; design: ligand concentration 3 nM; details: filed as antagonist, Compound concentration 10.0 uM
[33] = target: SRSF protein kinase 3 (Homo sapiens) (UniProt Q9UPE1); details: Compound concentration 1000.0 nM
[34] = target: 1-phosphatidylinositol 3-phosphate 5-kinase (Homo sapiens) (UniProt Q9Y2I7); details: Compound concentration 1000.0 nM
Sequence of 1-phosphatidylinositol 3-phosphate 5-kinase (Homo sapiens) (Q9Y2I7 whole entry): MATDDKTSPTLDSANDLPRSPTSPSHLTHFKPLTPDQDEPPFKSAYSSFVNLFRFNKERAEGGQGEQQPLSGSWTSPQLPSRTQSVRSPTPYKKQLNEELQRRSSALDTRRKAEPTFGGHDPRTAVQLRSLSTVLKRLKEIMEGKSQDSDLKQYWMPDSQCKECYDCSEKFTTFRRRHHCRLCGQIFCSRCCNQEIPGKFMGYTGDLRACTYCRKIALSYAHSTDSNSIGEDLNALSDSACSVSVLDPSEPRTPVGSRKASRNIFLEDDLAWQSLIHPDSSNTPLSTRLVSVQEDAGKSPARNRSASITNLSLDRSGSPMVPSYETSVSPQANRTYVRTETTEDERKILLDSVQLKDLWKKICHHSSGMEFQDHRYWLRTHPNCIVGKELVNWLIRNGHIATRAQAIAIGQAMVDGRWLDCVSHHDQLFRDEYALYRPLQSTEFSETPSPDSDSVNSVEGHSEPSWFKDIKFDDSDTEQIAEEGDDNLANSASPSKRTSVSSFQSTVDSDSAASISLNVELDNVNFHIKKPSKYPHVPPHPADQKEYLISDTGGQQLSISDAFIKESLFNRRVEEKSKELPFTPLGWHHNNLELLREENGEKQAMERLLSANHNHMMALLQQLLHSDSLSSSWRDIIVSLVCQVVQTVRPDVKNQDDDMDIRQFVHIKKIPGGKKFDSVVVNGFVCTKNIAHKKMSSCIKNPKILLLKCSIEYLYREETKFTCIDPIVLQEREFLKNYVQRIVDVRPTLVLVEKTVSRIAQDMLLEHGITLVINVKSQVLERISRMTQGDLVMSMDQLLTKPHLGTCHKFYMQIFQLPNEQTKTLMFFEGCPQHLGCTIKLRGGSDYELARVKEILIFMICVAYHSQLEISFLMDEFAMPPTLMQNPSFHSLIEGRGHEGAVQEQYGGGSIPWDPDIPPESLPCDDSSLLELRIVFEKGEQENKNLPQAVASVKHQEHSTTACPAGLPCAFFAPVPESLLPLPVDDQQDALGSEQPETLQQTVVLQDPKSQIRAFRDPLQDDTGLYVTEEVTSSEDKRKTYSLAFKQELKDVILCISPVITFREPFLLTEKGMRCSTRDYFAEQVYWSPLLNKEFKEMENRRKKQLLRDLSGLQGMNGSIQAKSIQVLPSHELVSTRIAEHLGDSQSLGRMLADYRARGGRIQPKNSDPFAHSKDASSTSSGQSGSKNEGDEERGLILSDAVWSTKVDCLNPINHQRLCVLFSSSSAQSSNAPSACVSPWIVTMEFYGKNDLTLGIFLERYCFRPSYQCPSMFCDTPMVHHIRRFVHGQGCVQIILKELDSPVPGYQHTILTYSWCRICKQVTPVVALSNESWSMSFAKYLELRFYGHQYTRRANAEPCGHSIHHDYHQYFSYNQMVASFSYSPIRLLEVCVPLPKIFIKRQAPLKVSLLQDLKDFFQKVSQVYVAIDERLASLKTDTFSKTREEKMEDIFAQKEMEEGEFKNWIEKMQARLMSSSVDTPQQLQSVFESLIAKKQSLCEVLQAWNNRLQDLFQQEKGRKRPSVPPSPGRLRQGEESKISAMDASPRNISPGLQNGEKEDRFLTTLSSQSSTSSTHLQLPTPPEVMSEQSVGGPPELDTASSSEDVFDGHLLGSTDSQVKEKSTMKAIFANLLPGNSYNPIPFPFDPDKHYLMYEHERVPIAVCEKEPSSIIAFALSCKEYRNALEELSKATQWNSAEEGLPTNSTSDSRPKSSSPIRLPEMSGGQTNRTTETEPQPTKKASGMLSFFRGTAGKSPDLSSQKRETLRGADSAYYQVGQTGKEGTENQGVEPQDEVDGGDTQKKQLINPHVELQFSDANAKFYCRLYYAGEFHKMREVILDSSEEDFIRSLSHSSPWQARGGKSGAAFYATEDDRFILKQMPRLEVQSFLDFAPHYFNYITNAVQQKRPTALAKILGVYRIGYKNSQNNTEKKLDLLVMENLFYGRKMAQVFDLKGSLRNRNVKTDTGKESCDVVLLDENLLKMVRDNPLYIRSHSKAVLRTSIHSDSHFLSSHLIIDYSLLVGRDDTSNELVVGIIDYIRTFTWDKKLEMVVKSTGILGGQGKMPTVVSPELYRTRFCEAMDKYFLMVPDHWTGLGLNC

[35] = target: Vasoactive intestinal polypeptide receptor 1 (Homo sapiens) (UniProt P32241); experiment: VPAC1 (VIP1) (h) Eurofins-Cerep binding assay; design: ligand concentration 0.04 nM; details: filed as agonist, Compound concentration 10.0 uM
Sequence of Vasoactive intestinal polypeptide receptor 1 (Homo sapiens) (P32241 whole entry): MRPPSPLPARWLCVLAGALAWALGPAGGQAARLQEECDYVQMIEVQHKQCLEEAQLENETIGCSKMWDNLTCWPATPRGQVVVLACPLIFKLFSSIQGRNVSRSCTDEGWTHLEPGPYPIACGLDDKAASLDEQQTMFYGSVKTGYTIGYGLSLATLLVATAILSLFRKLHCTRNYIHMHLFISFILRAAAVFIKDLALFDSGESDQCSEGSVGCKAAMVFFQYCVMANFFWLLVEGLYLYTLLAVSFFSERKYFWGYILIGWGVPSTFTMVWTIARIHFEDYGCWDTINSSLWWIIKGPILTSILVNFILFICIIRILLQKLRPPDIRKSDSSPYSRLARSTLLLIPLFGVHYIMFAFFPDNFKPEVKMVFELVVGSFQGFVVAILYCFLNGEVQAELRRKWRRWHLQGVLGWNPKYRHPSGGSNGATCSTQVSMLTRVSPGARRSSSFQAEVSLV

Compound	% Inhibition of Control Specific Binding (Mean n=2) [1]	residual activity [2]	residual activity [3]	residual activity [4]	residual activity [5]	residual activity [6]	residual activity [7]	residual activity [8]	residual activity [9]	residual activity [11]	residual activity [12]	residual activity [13]	% Inhibition of Control Specific Binding (Mean n=2) [14]	inhibition at 120 min, 10 µM [15]	residual activity [16]	residual activity [17]	residual activity [18]	residual activity [19]	residual activity [20]	% Inhibition of Control Specific Binding (Mean n=2) [21]	also measured
CCCOc1ccc([C@H]2[C@H](C(=O)O)[C@@H](c3ccc4c(c3)OCO4)CN2CC(=O)Nc2c(CC)cccc2CC)cc1 [A-192621]	18.3%	100%	65%	75%	88%	91%	51%	58%	63%	100%	61%	94%	39.3%	4.2%	93%	75%	100%	91%	93%	10.1%	% Inhibition of Control Specific Binding (Mean n=2) [10]: 1.2%; residual activity [22]: 99%; residual activity [23]: 86%; residual activity [24]: 100%; residual activity [25]: 71%; residual activity [26]: 68%; residual activity [27]: 84%; residual activity [28]: 71%; residual activity [29]: 52%; % Inhibition of Control Specific Binding (Mean n=2) [30]: 1.9%; residual activity [31]: 63%; % Inhibition of Control Specific Binding (Mean n=2) [32]: 77.4%; residual activity [33]: 100%; residual activity [34]: 86%; % Inhibition of Control Specific Binding (Mean n=2) [35]: -7.7%
CCCOc1ccc([C@@H]2[C@@H](C(=O)O)[C@H](c3ccc4c(c3)OCO4)CN2CC(=O)Nc2c(CC)cccc2CC)cc1 [A-1806262]	-3%	89%	80%	79%	64%	90%	74%	78%	100%	100%	90%	96%	-9.7%	15.4%	95%	81%	87%	89%	93%	10.7%	% Inhibition of Control Specific Binding [10]: 0%; residual activity [22]: 88%; residual activity [23]: 100%; residual activity [24]: 94%; residual activity [25]: 91%; residual activity [26]: 73%; residual activity [27]: 96%; residual activity [28]: 74%; residual activity [29]: 100%; % Inhibition of Control Specific Binding (Mean n=2) [30]: 0.4%; residual activity [31]: 69%; % Inhibition of Control Specific Binding (Mean n=2) [32]: 60.8%; residual activity [33]: 93%; residual activity [34]: 91%; % Inhibition of Control Specific Binding (Mean n=2) [35]: -1.5%
